Reference: US9981983B2, “Thienopyranones as kinase inhibitors” (SignalRx Pharmaceuticals, Inc., priority 2008, dated 2018)

Experiments:
[1] = tested on: pAKT serine 473 level in PC3 cells; assay: pAKT status in IGF-1 stimulated PC3 cells (Ser473 pAKT ELISA); format: cell-based; details: Homo sapiens, PC-3; IGF-1 stimulated PC3 cells; read-out: PC3 pAKT IC50
Procedure: (§1) PC3 cells were obtained from the American Type Culture Collection (ATCC, Manassas, Va., Cat.# CRL-1435). Two million cells from the prostate cancer line PC3 were placed into 6 cm culture dishes and allowed to grow in complete RPMI 1640 media (Invitrogen, Carlsbad, Calif., Cat.#22400-105) with 10% fetal bovine serum (Invitrogen, Carlsbad, Calif., Cat.#10438-026). After this time period the cells were serum starved for 5 hours followed by application of the test compound. Test compound was added as a DMSO (dimethyl sulfoxide) solution such that the final DMSO concentration in the cell media was less than or equal to 0.2% by volume After 30 minutes of exposure the growth factor stimulant, human IGF-1 (PeproTech, Inc., Rocky Hill, N.J., Cat.#100-11), was added to a final concentration of 0.1 μg/ml in each well. After 30 minutes of IGF-1 exposure, cells were removed from the media and cell lysates were prepared using RIPA Lysis buffer (Upstate, Lake Placid, N.Y., Cat.#20-188), keeping on ice. The pAKT serine 473 level was measured in duplicate samples of the cell lysates using commercially available assays such as the Pathscan® Sandwich ELISA kit for Ser473 pAKT (Cell Signaling, Danvers, Mass., Cat.#7160). A SpectraMax Plus spectrophotometric plate reader (Molecular Devices, Sunnydale, Calif.) was used to measure the optical density signal for pAKT at 450 nm (OD450 nm). The pAKT OD450 nm readings were normalized by total protein amount in the cell lysates determined by standard methods.
(§2) Concentrations of test compounds required to inhibit IGF stimulated pAKT levels to 50% of maximum levels in PC3 cells (termed DM50 for decreased maximum 50%) were calculated by inputting the dose responses in the software package GraphPad Prism4 (GraphPad Software, Inc., San Diego, Calif.).
By these methods a number of compounds of the invention were evaluated and the concentration needed to reduce the detectable pAKT to 50% of the maximal uninhibited signal was calculated. These values (in μMolar units) are listed in Table 8 under the column heading PC3 pAKT IC50 (μMolar).

pAKT in BT-474 cells = assay: pAKT status DM50, BT-474; format: cell-based; details: Homo sapiens; BT-474, breast cancer
Procedure: as §1, §2
Several other cancer cell lines were obtained from ATCC and grown according to the supplier's recommendations and treated with test compounds. DM50 values listed in Table 6 below were obtained by the methods described in Example A: […]

RPM18226 (Myeloma) = assay: Cell proliferation MTS assay, RPM18226; format: cell-based; details: 72 hours
Procedure: (§3) All cell lines were obtained from ATCC and cultured and plated according to ATCC recommendations. Cells were cultured in complete culture media containing 10% heat-inactivated fetal bovine serum (FBS, Mediatech, Inc.). For adherent cell lines, once cells reached 70% confluency, they were trypsinized and resuspended in phenol red free RPMI media (Mediatech, Inc.) plus 10% heat-inactivated FBS (assay buffer) and 100 μL aliquots were plated into each well of 96-well microtiter plates at a final density of 1,000-2,000 cells/well. Cells were incubated overnight at 37° C. in 5% CO2, and treated with test compounds on the next day. For suspension cell lines, cells were resuspended in assay buffer, plated into 96-well microtiter plates at a density of 10^4-10^5 cells/well/100 μL, and treatment was started on the same day. Cells were treated with vehicle (DMSO) and test compounds for 72 hours at concentration of 100, 70, 40, 20, 10, 5, 2.5, 1.25, 0.5 and 0.2 μM in four replicates at 37° C. in 5% CO2.

DU145 (Prostate) = assay: Cell proliferation MTS assay, DU145; format: cell-based; details: Homo sapiens, DU-145, 72 hours
Procedure: as §3

[2] = tested on: 786-0 renal cell carcinoma xenograft; assay: 786-0 renal cell carcinoma xenograft mouse model; format: in vivo, nude mice; details: ip, 3×/wk for 4 weeks
Procedure: To determine if Cpd 9 has anti-tumor effects, an in vivo study was conducted in a 786-0 renal cell carcinoma xenograft model, 786-0 cells (2×10^6) were inoculated subcutaneously into nude mice in the flank area and tumor growth was monitored with calipers via external measurements. Tumor volume was calculated using the formula volume=(length×width^2)/2. When the average tumor volume reached 400 mm^3, mice were randomly divided into 2 groups and treated with either DMSO (control) or Cpd 9 (25 mg/kg, ip) three times weekly (M, W, F) for two weeks.
To determine if Cpd 28 has anti-tumor effects, an in vivo study was conducted in a 786-0 renal cell carcinoma xenograft model, 786-0 cells (2×10^6) were inoculated subcutaneously into nude mice in the flank area and tumor growth was monitored with calipers via external measurements. Tumor volume was calculated using the formula volume=(length×width^2)/2. Treatment was started when tumors reached an average volume of 300 mm^3. […] DMSO was used as control since this was the vehicle the compounds were dissolved in. Tumor size was monitored twice weekly and body weight was monitored once weekly. Means and standard deviations were calculated and the Student t test method was used for statistical comparisons.

A549 (Lung) = assay: Cell proliferation MTS assay, A549; format: cell-based; details: Homo sapiens, 72 hours
Procedure: as §3

BXPC3 (Pancreas) = assay: Cell proliferation MTS assay, BXPC3; format: cell-based; details: Homo sapiens, BXPC-3, 72 hours
Procedure: as §3

Panc-1 (Pancreas) = assay: Cell proliferation MTS assay, Panc-1; format: cell-based; details: Homo sapiens, 72 hours
Procedure: as §3

HT29 (Colon) = assay: Cell proliferation MTS assay, HT29; format: cell-based; details: Homo sapiens, HT-29, 72 hours
Procedure: as §3

MDA-MB468 (Breast) = assay: Cell proliferation MTS assay, MDA-MB468; format: cell-based; details: Homo sapiens, MDA-MB-468, 72 hours
Procedure: as §3

786-0 cells = assay: Apoptosis in 786-0 cells (Annexin V / PI flow cytometry); format: cell-based; set-up: unit not given here; details: overnight
Procedure: In order to evaluate the mechanism of action of these compounds, 786-0 cell cultures were treated with Cpd 9 or Cpd 28 at different concentrations overnight and then analyzed for apoptotic induction. The cells were stained using standard methods with Annexin V and/or Propedium iodine (PI) at room temperature for 15 minutes. Apoptotic cells at early (Annexin V positive) or late stage (both Annexin V and PI positive) were detected by Flow Cytometry.

U87MG (Brain) = assay: Cell proliferation MTS assay, U87MG; format: cell-based; details: Homo sapiens, U-87 MG, 72 hours
Procedure: as §3

O=c1cc(N2CCOCC2)oc2c(-c3ccc4c(c3)OCCO4)csc12 [Compound 28, 3-(2,3-dihydrobenzo[b][1,4]dioxin-6-yl)-5-morpholino-7H-thieno[3,2-b]pyran-7-one]
IC50 [1]: 161 to 440 nM | IC50 (pAKT in BT-474 cells): 307 nM | IC50 (RPM18226 (Myeloma)): 730 nM | IC50 (DU145 (Prostate)): 2070 nM | tumor growth inhibition compared to control ([2]; 25 mg/kg): 70% | body weight change or other abnormalities ([2]; 50 mg/kg): no significant body weight change or other abnormalities noted | tumor growth inhibition compared to control ([2]; 50 mg/kg): 81% | IC50 (A549 (Lung)): 2540 nM | IC50 (BXPC3 (Pancreas)): 3350 nM | IC50 (Panc-1 (Pancreas)): 18400 nM | IC50 (HT29 (Colon)): 2400 nM | IC50 (MDA-MB468 (Breast)): 2710 nM | Early stage apoptotic cells (786-0 cells; 5 μM): 10.4 | Late stage apoptotic cells (786-0 cells; 5 μM): 11.56 | Total Apoptotic Cells (786-0 cells; 5 μM): 21.96 | Early stage apoptotic cells (786-0 cells; 10 μM): 16.45 | Late stage apoptotic cells (786-0 cells; 10 μM): 15.43 | Total Apoptotic Cells (786-0 cells; 10 μM): 31.88 | IC50 (U87MG (Brain)): 1920 nM
